Assay results published in patent US9708368B2, “Linear peptide antibiotics” (priority 2012, dated 2017).
Values after ≈ are worked out from the molar mass of the structure shown. Square brackets hold non-standard residues; d marks the D form. Peptide text beside a SMILES is read from it. * marks the point of attachment. ξ: configuration not given here. boroAla((+)-pinanediol) = C[C@H](N*)B1O[C@@H]2C[C@@H]3C[C@@H](C3(C)C)[C@]2(C)O1; Biphenylcarbonyl(4'-Bu) = CCCCc1ccc(-c2ccc(C(=O)*)cc2)cc1; X1 = C[C@H](N*)B1OC2C[C@@H]3C[C@@H](C3(C)C)[C@]2(C)O1; Benzoyl(4-(4-Cl-Ph)) = O=C(c1ccc(-c2ccc(Cl)cc2)cc1)*; X16 = CC(C)(C)c1ccc(-c2ccc(C(=O)*)cc2)cc1; NMeThr(3ξ) = CN[C@H](C(=O)O)C(C)O; Myristoyl = CCCCCCCCCCCCCC(=O)*; Thr(3ξ) = CC(O)[C@H](N)C(=O)O; Lauroyl = CCCCCCCCCCCC(=O)*; boroAla = C[C@H](N*)B(O)O; Orn = NCCC[C@H](N)C(=O)O; Dab = NCC[C@H](N)C(=O)O; Ac3c = NC1(C(=O)O)CC1; βAla = NCCC(=O)O

What was measured:
[1] = test system: Escherichia coli MC4100 IMP-4213 in which transcription of the SPase encoding gene is under control of a tetracycline inducible promoter; details: Method A; E. coli MC4100 IMP-4213 with decreased SPase expression; 35° C., 22 hours
Procedure: (§1) In vitro antimicrobial activity of each compound was determined by measuring minimal inhibitor concentrations (MICs) using the broth micro-dilution technique as approved by the Clinical and Laboratory Standards Institute (CLSI). […] Cells were inoculated onto Trypyticase Soy Agar or Luria Agar containing 16 ng/ml of anhydrotetracycline respectively and grown at 35° C. for 20 hours. Inocula suspensions were made by scraping cells into 1 mL of testing media (cation adjusted Mueller Hinton Broth supplemented with 0.002% v/v Tween-80) and diluting to a final OD600 nm of 0.01.
(§2) Test compounds were prepared in DMSO at a concentration of 10 mg/ml. […] Inocula suspensions were added to the two fold serial dilutions of test compounds to a final density of OD OD600 nm of 0.0005 and incubated stationary at 35° C. for 22 hours, after which the plates were examined visually.

[2] = test system: Methicillin Resistant Staphylococcus aureus strain USA 300 (NRS384); details: Method A; MRSA USA 300 (NRS384); 35° C., 22 hours
Procedure: as §1, §2

S. aureus SPase = S. aureus SPase (Staphylococcus aureus, UniProt P0A070); test: biochemical
S. aureus SPase, sequence (P0A070 whole entry): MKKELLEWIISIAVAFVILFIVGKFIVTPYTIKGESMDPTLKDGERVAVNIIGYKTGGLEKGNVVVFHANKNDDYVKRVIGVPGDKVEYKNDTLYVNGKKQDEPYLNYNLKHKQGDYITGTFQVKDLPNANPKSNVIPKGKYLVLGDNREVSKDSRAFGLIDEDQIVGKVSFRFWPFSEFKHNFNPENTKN

E. coli SPase = E. coli SPase (Escherichia coli, UniProt P00803); test: Biochemical SPase activity assay (fluorogenic peptide substrate), E. coli enzyme
E. coli SPase, sequence (P00803 whole entry): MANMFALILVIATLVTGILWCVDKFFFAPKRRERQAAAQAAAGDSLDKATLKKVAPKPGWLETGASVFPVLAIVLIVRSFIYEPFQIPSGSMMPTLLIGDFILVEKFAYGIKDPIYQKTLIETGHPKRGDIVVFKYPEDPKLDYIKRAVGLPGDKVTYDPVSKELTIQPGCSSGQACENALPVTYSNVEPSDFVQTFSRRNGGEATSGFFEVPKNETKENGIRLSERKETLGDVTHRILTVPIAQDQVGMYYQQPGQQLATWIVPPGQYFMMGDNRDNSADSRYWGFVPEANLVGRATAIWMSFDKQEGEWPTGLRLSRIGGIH

[3] = test system: Escherichia coli strain MC4100 IMP-4213, which harbors an LptD mutation; details: Method B; E. coli MC4100 IMP-4213 (LptD mutation); 35° C., 22 hours
Procedure, shortened: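 Two-fold serial dilutions of compound inoculated at final OD600 0.0005, incubated static at 35 °C for 22 h, and growth read visually.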

[4] = test system: methicillin resistant Staphylococcus aureus (MRSA) strain USA300 (NRS384); details: Method B, 35° C., 22 hours

`CCCCc1ccc(-c2ccc(C(=O)NCCC(=O)N[C@@H](CCCCN)C(=O)N[C@H](C(=O)N[C@@H](C)C(=O)N[C@@H](CC(N)=O)C(=O)N[C@@H](C)B3OC4C[C@@H]5C[C@@H](C5(C)C)[C@]4(C)O3)C(C)O)cc2)cc1` (stereo partly shown) [Compound 121] ({Biphenylcarbonyl(4'-Bu)-βAla}-K[Thr(3ξ)]AN-X1) was tested, and the “MIC (μg/mL) E. coli” value [1] was 0.5 µg/mL (≈ 0.529 µM) and the “MIC (μg/mL) S. aureus” value [2] was 0.25 µg/mL (≈ 0.265 µM).

With `CCCCCCCCCCCCCC(=O)N[C@@H](CC(C)C)C(=O)N[C@H](C(=O)N1CCC[C@@H]1C(=O)N[C@H](C(=O)N[C@@H](C)C(=O)N[C@@H](CC(N)=O)C(=O)NCC=O)C(C)O)C(C)O` (stereo partly shown) [Compound 103] (Myristoyl-L[Thr(3ξ)][dP][Thr(3ξ)]ANG-aldehyde) the IC50 (S. aureus SPase) was 110 nM, the IC50 (E. coli SPase) was 11000 nM and the “MIC (μg/mL) S. aureus” value [2] was >64 µg/mL.

`CCCCCCCCCCCCCC(=O)N[C@H](CO)C(=O)N[C@H](C)C(=O)NCC(=O)N(C)[C@H](C(=O)N[C@@H](C)C(=O)N[C@@H](CC(C)C)C(=O)NCC=O)C(C)O` (stereo partly shown) [Compound 104] (Myristoyl-[dS][dA]G[NMeThr(3ξ)]ALG-aldehyde) was tested, and the IC50 (S. aureus SPase) was 18 nM, the IC50 (E. coli SPase) was 8900 nM and the “MIC (μg/mL) S. aureus” value [2] was 8 µg/mL (≈ 10.2 µM).

With `C[C@H](NC(=O)[C@H](CCCCN)NC(=O)[C@H](C)NC(=O)[C@@H](NC(=O)[C@H](CCN)NC(=O)c1ccc(-c2ccc(C(C)(C)C)cc2)cc1)[C@@H](C)O)B1O[C@@H]2C[C@@H]3C[C@@H](C3(C)C)[C@]2(C)O1` [Compound 231] (X16-[Dab]TAK-{boroAla((+)-pinanediol)}) the IC50 (S. aureus SPase) was 95 nM, the IC50 (E. coli SPase) was 4.5 nM and the “MIC (μg/mL) E. coli” value [3] was 0.5 µg/mL (≈ 0.581 µM). The “MIC (μg/mL) S. aureus” value [4] was 0.5 µg/mL (≈ 0.581 µM).

For `C[C@H](NC(=O)[C@H](CC(N)=O)NC(=O)[C@H](C)NC(=O)[C@@H](NC(=O)[C@H](CCCCN)NC(=O)CCNC(=O)c1ccc(-c2ccc(Cl)cc2)cc1)[C@@H](C)O)B(O)O` [Compound 154] ({Benzoyl(4-(4-Cl-Ph))-βAla}-KTAN-boroAla), the IC50 (S. aureus SPase) was 8.1 nM, the IC50 (E. coli SPase) was 14 nM and the “MIC (μg/mL) E. coli” value [3] was 32 µg/mL (≈ 40.6 µM). For the same molecule, the “MIC (μg/mL) S. aureus” value [4] was 2.8 µg/mL (≈ 3.55 µM).

In the case of `CCCCCCCCCCCC(=O)N[C@@H](CCCCN)C(=O)N[C@H](C(=O)N[C@@H](C)C(=O)N[C@@H](CCCCN)C(=O)N[C@@H](C)B1OC2C[C@@H]3C[C@@H](C3(C)C)[C@]2(C)O1)[C@@H](C)O` (stereo partly shown) [Compound 141] (Lauroyl-KTAK-X1), the IC50 (S. aureus SPase) is reported as 23 nM, the IC50 (E. coli SPase) is reported as 33 nM and the “MIC (μg/mL) E. coli” value [3] is reported as 5.7 µg/mL (≈ 6.83 µM). The “MIC (μg/mL) S. aureus” value [4] was 0.79 µg/mL (≈ 0.947 µM).

With `CCCCc1ccc(-c2ccc(C(=O)N[C@@H](CCCN)C(=O)N[C@H](C(=O)N[C@@H](C)C(=O)N[C@@H](CCCCN)C(=O)N[C@@H](C)B3OC4C[C@@H]5C[C@@H](C5(C)C)[C@]4(C)O3)[C@@H](C)O)cc2)cc1` (stereo partly shown) [Compound 142] ({Biphenylcarbonyl(4'-Bu)}-[Orn]TAK-X1) the IC50 (S. aureus SPase) was 34 nM, the IC50 (E. coli SPase) was 15 nM and the “MIC (μg/mL) E. coli” value [3] was 0.5 µg/mL (≈ 0.572 µM). The “MIC (μg/mL) S. aureus” value [4] was 0.22 µg/mL (≈ 0.252 µM).

`CCCCc1ccc(-c2ccc(C(=O)N[C@@H](CO)C(=O)N[C@H](C(=O)N[C@@H](C)C(=O)N[C@@H](CCCCN)C(=O)N[C@@H](C)B(O)O)[C@@H](C)O)cc2)cc1` [Compound 164] ({Biphenylcarbonyl(4'-Bu)}-STAK-boroAla) was tested, and the IC50 (S. aureus SPase) was 120 nM, the IC50 (E. coli SPase) was 44 nM and the “MIC (μg/mL) E. coli” value [3] was 1 µg/mL (≈ 1.4 µM). The “MIC (μg/mL) S. aureus” value [4] was 1.4 µg/mL (≈ 1.96 µM).

`CCCCc1ccc(-c2ccc(C(=O)NCCC(=O)N[C@@H](CCCCN)C(=O)N[C@@H](CCCCN)C(=O)N[C@@H](C)C(=O)N[C@@H](CC(N)=O)C(=O)N[C@@H](C)B3OC4C[C@@H]5C[C@@H](C5(C)C)[C@]4(C)O3)cc2)cc1` (stereo partly shown) [Compound 197] ({Biphenylcarbonyl(4'-Bu)-βAla}-KKAN-X1) was tested, and the IC50 (S. aureus SPase) was 6.2 nM, the IC50 (E. coli SPase) was 11 nM and the “MIC (μg/mL) E. coli” value [3] was 1 µg/mL (≈ 1.03 µM). For the same molecule, the “MIC (μg/mL) S. aureus” value [4] was 0.3 µg/mL (≈ 0.309 µM).

`CCCCc1ccc(-c2ccc(C(=O)NCCC(=O)N[C@@H](CCCCN)C(=O)N[C@H](C(=O)N[C@@H](C)C(=O)NC3(C(=O)N[C@@H](C)B4OC5C[C@@H]6C[C@@H](C6(C)C)[C@]5(C)O4)CC3)[C@@H](C)O)cc2)cc1` (stereo partly shown) [Compound 219] ({Biphenylcarbonyl(4'-Bu)-βAla}-KTA[Ac3c]-X1) was tested, and the IC50 (S. aureus SPase) was 46 nM, the IC50 (E. coli SPase) was 560 nM and the “MIC (μg/mL) E. coli” value [3] was 64 µg/mL (≈ 70 µM). For the same molecule, the “MIC (μg/mL) S. aureus” value [4] was 5 µg/mL (≈ 5.47 µM).

In the case of `CCCCc1ccc(-c2ccc(C(=O)N[C@H]3CN[C@H](C(=O)N[C@H](C(=O)N[C@@H](C)C(=O)N[C@@H](CCCCN)C(=O)N[C@@H](C)B4OC5C[C@@H]6C[C@@H](C6(C)C)[C@]5(C)O4)[C@@H](C)O)C3)cc2)cc1` (stereo partly shown) [Compound 269], the IC50 (S. aureus SPase) is reported as 340 nM, the IC50 (E. coli SPase) is reported as 1800 nM and the “MIC (μg/mL) E. coli” value [3] is reported as 8 µg/mL (≈ 9.18 µM). The “MIC (μg/mL) S. aureus” value [4] was 0.5 µg/mL (≈ 0.573 µM).
